Molecules are shown by their SMILES. pIC50: −log10 of the molar value. Some results are limits rather than exact numbers.

As usually defined, the pIC50 is the negative decadic logarithm of the IC50, by convention in mol/L. Higher therefore signals a low IC50.

Test [1] concerns AsPc-1 cells. Kind of test: Inhibitory activity for AsPc-1 cell proliferation (CCK-8). It is filed as cell-based, human. The method, then: AsPc-1 cells in a well-growing state were collected into a centrifuge tube, adjusted to a cell density of 3 × 10^4 cells/mL, and inoculated onto a 96-well plate (100 µL/well). The compounds were added using a nanoliter pipettor such that the final concentrations of the compounds were 5000 nM-0.31 nM (the addition was performed in duplicate). Meanwhile, a control was set. After 72 h of incubation in the cell incubator, the assay reagent CCK-8 (manufacturer: Dojindo Laboratories; 10 µL/well) was added. After 3 h of incubation in the cell incubator, the absorbance was measured at 450 nm on a PerkinElmer Envision microplate reader. A four-parameter analysis was performed, a dose-response curve was fitted, and IC50 was calculated.

Test [2] concerns Capan-1 cells. Kind of test: Inhibitory activity for Capan-1 cell proliferation (CCK-8). It is filed as cell-based. The settings on record: 5 days incubation. The protocol: Capan-1 cells in a well-growing state were collected into a centrifuge tube, adjusted to a cell density of 1.5 × 10^4 cells/mL, and inoculated onto a 96-well plate (100 µL/well). […] Meanwhile, a control was set. After 5 days of incubation in the cell incubator, the assay reagent CCK-8 (manufacturer: Dojindo Laboratories, Beijing; 10 µL/well) was added. After 4 h of incubation in the cell incubator, the absorbance was measured at 450 nm on a PerkinElmer Envision microplate reader. A four-parameter analysis was performed, a dose-response curve was fitted, and IC50 was calculated.

[3] abbreviates: Homo sapiens, ASPC1, 72 h incubation.

Take `C#Cc1c(F)ccc2cc(O)cc(-c3nc4c5c(nc(N6CC(C)(N(C)C)C6)nc5c3F)N(C(C)c3cccnc3N)[C@@H](C)CO4)c12` (single isomer, unassigned) [Example 156]: the pIC50 is no less than 7.00 in test [1] (setting [3]) and greater than 7.00 in test [2] (Homo sapiens, CAPAN-1, 120 h).

Consider `C#Cc1c(F)ccc2cc(O)cc(-c3nc4c5c(nc(OCC67CCCN6CC(F)C7)nc5c3F)N(C(C)c3cccnc3N)CCO4)c12` (single isomer, unassigned) [Example 36], for which the pIC50 in test [1] (setting [3]) was no less than 7.00; in test [2] (Homo sapiens, CAPAN-1, 120 h) it was greater than 7.00.

Regarding `C#Cc1c(F)ccc2cc(O)cc(-c3nc4c5c(nc(OC[C@@H]6CC(F)(F)CN6C)nc5c3F)N(C(C)c3cccnc3N)[C@@H](C)CO4)c12` (single isomer, unassigned) [Example 148], the pIC50 was no less than 7.00 in test [1] (setting [3]) and greater than 7.00 in test [2] (Homo sapiens, CAPAN-1, 120 h).

For the compound `C#Cc1c(F)ccc2cc(O)cc(-c3nc4c5c(nc(OCC67CCCN6CC(F)C7)nc5c3F)N(C(C)c3cccnc3N)C(C)CO4)c12` (single isomer, unassigned) [Example 40], the pIC50 in test [1] (72 h incubation) is no less than 7.00; in test [2], greater than 7.00.

In test [1] (setting [3]), `C#Cc1c(F)ccc2cc(O)cc(-c3nc4c5c(nc(OC[C@@]67CCCN6C[C@H](F)C7)nc5c3F)N(C(C)C)C(C)CO4)c12` (stereo partly drawn) [Example 49] had a pIC50 of no less than 7.00.

In the case of `C#Cc1c(F)ccc2cc(O)cc(-c3nc4c5c(nc(OC[C@@]67CCCN6C[C@H](F)C7)nc5c3F)N(C(C)c3cccnc3N)[C@@H](C)CO4)c12` (stereo partly drawn) [Example 38], the pIC50 in test [1] (setting [3]) is no less than 7.00; in test [2] (Homo sapiens, CAPAN-1, 120 h), greater than 7.00.

With `C#Cc1cccc2cccc(-c3nc4c5c(nc(OC[C@@]67CCCN6C[C@H](F)C7)nc5c3F)N(C(C)c3cccnc3N)[C@@H](C)CO4)c12` (single isomer, unassigned) [Example 130], the pIC50 is no less than 7.00 in test [1] (setting [3]) and greater than 7.00 in test [2] (Homo sapiens, CAPAN-1, 120 h).

On to `CC(c1cccnc1N)N1c2nc(OC[C@@]34CCCN3C[C@H](F)C4)nc3c(F)c(-c4cc(O)cc5ccccc45)nc(c23)OC[C@@H]1C` (single isomer, unassigned) [Example 118], for which the pIC50 in test [1] (setting [3]) was no less than 7.00; in test [2] (Homo sapiens, CAPAN-1, 120 h), greater than 7.00.

With `C#Cc1c(F)ccc2cc(O)cc(-c3nc4c5c(nc(OC[C@@]67CCCN6C/C(=C\F)C7)nc5c3F)N(C(C)c3cccnc3N)[C@@H](C)CO4)c12` (single isomer, unassigned) [Example 176], the pIC50 was no less than 7.00 in test [1] (setting [3]) and greater than 7.00 in test [2] (Homo sapiens, CAPAN-1, 120 h).

Take `C#Cc1c(F)ccc2cc(O)cc(-c3nc4c5c(nc(OC[C@@]67CCCN6C[C@H](F)C7)nc5c3F)N(C(C)c3cccnc3N)CCO4)c12` (stereo partly drawn) [Example 34]: the negative logarithm of the IC50 (pIC50) in test [1] (setting [3]) was no less than 7.00; in test [2] (Homo sapiens, CAPAN-1, 120 h), greater than 7.00.

In the case of `C#Cc1c(F)ccc2cc(O)cc(-c3nc4c5c(nc(OCC67CCCN6CC(F)C7)nc5c3F)N(CC)C(C)CO4)c12` (single isomer, unassigned) [Example 32], the pIC50 in test [1] (setting [3]) was no less than 7.00; in test [2] (Homo sapiens, CAPAN-1, 120 h) it was greater than 7.00.

As to `C#Cc1c(F)ccc2cc(O)cc(-c3nc4c5c(nc(OC[C@@H]6CCCN6C)nc5c3F)N(C(C)c3cccnc3N)[C@@H](C)CO4)c12` (single isomer, unassigned) [Example 67], the pIC50 in test [1] (setting [3]) was no less than 7.00; in test [2] (Homo sapiens, CAPAN-1, 120 h), greater than 7.00.

Take `C#Cc1c(F)ccc2cc(O)cc(-c3nc4c5c(nc(OCCN6CC(F)C6)nc5c3F)N(C(C)c3cccnc3N)[C@@H](C)CO4)c12` (single isomer, unassigned) [Example 172]: the pIC50 in test [1] (setting [3]) is no less than 7.00; in test [2] (Homo sapiens, CAPAN-1, 120 h) it was greater than 7.00.

In test [1] (setting [3]), `C#Cc1c(F)ccc2cc(N)cc(-c3nc4c5c(nc(OCC67CCCN6CCC7)nc5c3F)N(C(C)c3cccnc3N)[C@@H](C)CO4)c12` (single isomer, unassigned) [Example 164] gave a pIC50 of no less than 7.00.

As to `C#Cc1c(F)ccc2cc(O)cc(-c3nc4c5c(nc(OC[C@@]67CCCN6CC(=C)C7)nc5c3F)N(C(C)c3cccnc3N)[C@@H](C)CO4)c12` (single isomer, unassigned) [Example 178], the negative-log IC50 (pIC50) in test [1] (setting [3]) is no less than 7.00.

The values above are taken from patent publication EP4570805A1, “TRICYCLIC COMPOUNDS AND MEDICAL USE THEREOF” (Chia Tai Tianqing Pharmaceutical Group Co., Ltd., priority 2022, dated 2024).
